Melting point data for ten molecules are collected here from patent US6982348B2, “Aminoethanol derivatives” (Takeda Pharmaceutical Company Limited, priority 2001, dated 2006).

A word on the melting point: it is the temperature of the solid-liquid transition.

In turn, `CC(C)(C)OC(=O)N[C@H](Cc1cccc(OC(F)(F)C(F)F)c1)[C@@H](O)c1ccc(Oc2cccnc2)cc1` (racemic) [Example 260, tert-butyl (1RS,2SR)-2-hydroxy-2-[4-(pyridin-3-yloxy)phenyl]-1-[3-(1,1,2,2-tetrafluoroethoxy)benzyl]ethylcarbamate] yielded a melting point of 123 to 124 °C.

Turning to `O=C(N[C@H](Cc1cccc(OC(F)(F)C(F)F)c1)[C@@H](O)c1ccc(Oc2cccnc2)cc1)c1cccc2c1C=CCCC2` (racemic) [Example 261, N-{(1RS,2SR)-2-hydroxy-2-[4-(pyridin-3-yloxy)phenyl]-1-[3-(1,1,2,2-tetrafluoroethoxy)benzyl]ethyl}-6,7-dihydro-5H-benzo[a][7]annulene-1-carboxamide], the melting point was 133 to 134 °C.

As for `O=C(N[C@H](Cc1cccc(OC(F)(F)C(F)F)c1)[C@@H](O)c1ccc(Oc2cccnc2)cc1)c1ccc(F)c2ccccc12` (racemic) [Example 262, 4-fluoro-N-{(1RS,2SR)-2-hydroxy-2-[4-(pyridin-3-yloxy)phenyl]-1-[3-(1,1,2,2-tetrafluoroethoxy)benzyl]ethyl}-1-naphthamide], the melting point was 183 to 184 °C.

The molecule `O=C(N[C@H](Cc1cccc(OC(F)(F)C(F)F)c1)[C@@H](O)c1cccc(F)c1)c1ccc(F)c2ccccc12` (racemic) [Example 263, 4-fluoro-N-{(1RS,2SR)-2-(3-fluorophenyl)-2-hydroxy-1-[3-(1,1,2,2-tetrafluoroethoxy)benzyl]ethyl}-1-naphthamide] came in with a melting point of 175 to 176 °C.

As for `O=C(N[C@H](Cc1cccc(OC(F)(F)C(F)F)c1)[C@@H](O)c1cccc(Cl)c1)c1ccc(F)c2ccccc12` (racemic) [Example 264, 4-fluoro-N-{(1RS,2SR)-2-(3-chlorophenyl)-2-hydroxy-1-[3-(1,1,2,2-tetrafluoroethoxy)benzyl]ethyl}-1-naphthamide], the melting point was 177 to 178 °C.

The molecule `O=C(N[C@H](Cc1cccc(OC(F)(F)C(F)F)c1)[C@@H](O)c1ccnc(F)c1)c1ccc(F)c2ccccc12` (racemic) [Example 265, 4-fluoro-N-{(1RS,2SR)-2-(2-fluoropyridin-4-yl)-2-hydroxy-1-[3-(1,1,2,2-tetrafluoroethoxy)benzyl]ethyl}-1-naphthamide] displayed a melting point of 170 to 171 °C.

In turn, `O=C(N[C@H](Cc1cccc(OC(F)(F)C(F)F)c1)[C@@H](O)c1cccc(F)n1)c1ccc(F)c2ccccc12` (racemic) [Example 266, 4-fluoro-N-{(1RS,2RS)-2-(6-fluoropyridin-2-yl)-2-hydroxy-1-[3-(1,1,2,2-tetrafluoroethoxy)benzyl]ethyl}-1-naphthamide] displayed a melting point of 185 to 186 °C.

Regarding `O=C(N[C@H](Cc1cccc(OC(F)(F)C(F)F)c1)[C@@H](O)c1ccc(Oc2ccccc2)cc1)c1ccc(F)c2ccccc12` (racemic) [Example 267, 4-fluoro-N-{(1RS,2SR)-2-hydroxy-2-(4-phenoxyphenyl)-1-[3-(1,1,2,2-tetrafluoroethoxy)benzyl]ethyl}-1-naphthamide], the melting point lay in the range of 155 to 156 °C.

`O=C(N[C@H](Cc1cccc(SC(F)(F)F)c1)[C@@H](O)c1ccc(F)cc1)c1ccc(F)c2ccccc12` (racemic) [Example 269, 4-fluoro-N-((1RS,2SR)-2-(4-fluorophenyl)-2-hydroxy-1-{3-[(trifluoromethyl)thio]benzyl}ethyl)-1-naphthamide]: the melting point is 192 to 193 °C.

Regarding `O=C(N[C@H](Cc1ccc2c(c1)OC(F)(F)C(F)(F)O2)[C@@H](O)c1ccc(F)cc1)c1cccc2c1C=CCCC2` (racemic) [Example 270, N-{(1RS,2SR)-2-(4-fluorophenyl)-2-hydroxy-1-[(2,2,3,3-tetrafluoro-2,3-dihydro-1,4-benzodioxin-6-yl)methyl]ethyl}-6,7-dihydro-5H-benzo[a][7]annulene-1-carboxamide], the melting point lay within 184 to 185 °C.
